Measured values: ChEMBL document CHEMBL3885861, “Open TG-GATES”

Species: Rattus norvegicus
Assay: Open TG-GATES - Regimen: Single
Format: toxicity, organism-based, Sprague-Dawley
Parameters: regimen Single, gender Male, age 6 weeks
Conditions: in vivo, po, 300 mg/kg, route gavage, dose level Middle; for APTT / Bas / Eos / Fbg / Hb / Ht / Lym / MCH / MCHC / MCV / Mono / Neu / PT / Plat / RBC / Ret / WBC: tissue Blood; for KIDNEY_L / KIDNEY_R / KIDNEY_TOTAL: tissue Kidney; for LIVER: tissue Liver; for A/G / ALP / ALT / AST / BUN / CRE / Ca / Cl / DBIL / GLC / IP / K / LDH / Na / PL / RALB / TBIL / TC / TG / TP / gamma-GTP: tissue Plasma

SMILES: CCCCNC(=O)NS(=O)(=O)c1ccc(C)cc1 [TOLBUTAMIDE]
- TERMINAL_BW (3 h): 202.7 g
- APTT (3 h): 16.1 s
- Bas (3 h): 0%
- Eos (3 h): 1%
- Fbg (3 h): 308.4 mg/dL
- Hb (3 h): 13.7 g/dL
- Ht (3 h): 42.4%
- Lym (3 h): 75.2%
- MCH (3 h): 20.5 pg
- MCHC (3 h): 32.3%
- MCV (3 h): 63.5 fL
- Mono (3 h): 3%
- Neu (3 h): 20.4%
- PT (3 h): 12.9 s
- Plat (3 h): 121.4 x10_4/uL
- RBC (3 h): 667.6 x10_4/ul
- Ret (3 h): 9%
- WBC (3 h): 75.7 x10_2/uL
- KIDNEY_L (3 h): 0.9 g
- KIDNEY_R (3 h): 0.9 g
- KIDNEY_TOTAL (3 h): 1.8 g
- LIVER (3 h): 8.8 g
- A/G (3 h): 0.9
- ALP (3 h): 1501.4 IU/L
- ALT (3 h): 42 IU/L
- AST (3 h): 75 IU/L
- BUN (3 h): 11.2 mg/dL
- CRE (3 h): 0.2 mg/dL
- Ca (3 h): 10.8 mg/dL
- Cl (3 h): 107 meq/L
- DBIL (3 h): 0.008 mg/dL
- GLC (3 h): 148 mg/dL
- IP (3 h): 8.4 mg/dL
- K (3 h): 4.1 meq/L
- LDH (3 h): 59.6 IU/L
- Na (3 h): 141 meq/L
- PL (3 h): 135.6 mg/dL
- RALB (3 h): 2.6 g/dL
- TBIL (3 h): 0.052 mg/dL
- TC (3 h): 76.6 mg/dL
- TG (3 h): 71.8 mg/dL
- TP (3 h): 5.5 g/dL
- gamma-GTP (3 h): 1 IU/L
- TERMINAL_BW (6 h): 203.4 g
- APTT (6 h): 17.5 s
- Bas (6 h): 0.2%
- Eos (6 h): 1%
- Fbg (6 h): 295 mg/dL
- Hb (6 h): 13.9 g/dL
- Ht (6 h): 42.5%
- Lym (6 h): 75.8%
- MCH (6 h): 21.4 pg
- MCHC (6 h): 32.7%
- MCV (6 h): 65.5 fL
- Mono (6 h): 2.6%
- Neu (6 h): 20.4%
- PT (6 h): 13.1 s
- Plat (6 h): 119.3 x10_4/uL
- RBC (6 h): 650 x10_4/ul
- Ret (6 h): 9%
- WBC (6 h): 68.2 x10_2/uL
- KIDNEY_L (6 h): 0.9 g
- KIDNEY_R (6 h): 0.9 g
- KIDNEY_TOTAL (6 h): 1.8 g
- LIVER (6 h): 8.5 g
- A/G (6 h): 0.9
- ALP (6 h): 1415.4 IU/L
- ALT (6 h): 47.2 IU/L
- AST (6 h): 81.8 IU/L
- BUN (6 h): 11.6 mg/dL
- CRE (6 h): 0.2 mg/dL
- Ca (6 h): 11 mg/dL
- Cl (6 h): 106.6 meq/L
- DBIL (6 h): 0.006 mg/dL
- GLC (6 h): 134.8 mg/dL
- IP (6 h): 9.5 mg/dL
- K (6 h): 3.8 meq/L
- LDH (6 h): 54 IU/L
- Na (6 h): 141.4 meq/L
- PL (6 h): 126.6 mg/dL
- RALB (6 h): 2.6 g/dL
- TBIL (6 h): 0.058 mg/dL
- TC (6 h): 66.6 mg/dL
- TG (6 h): 59.2 mg/dL
- TP (6 h): 5.4 g/dL
- gamma-GTP (6 h): 1.2 IU/L
- TERMINAL_BW (9 h): 200 g
- APTT (9 h): 17.4 s
- Bas (9 h): 0%
- Eos (9 h): 1.2%
- Fbg (9 h): 324 mg/dL
- Hb (9 h): 13.7 g/dL
- Ht (9 h): 41.4%
- Lym (9 h): 69%
- MCH (9 h): 20.7 pg
- MCHC (9 h): 32.9%
- MCV (9 h): 62.9 fL
- Mono (9 h): 2.4%
- Neu (9 h): 27%
- PT (9 h): 13.4 s
- Plat (9 h): 129.6 x10_4/uL
- RBC (9 h): 659 x10_4/ul
- Ret (9 h): 8.8%
- WBC (9 h): 81.6 x10_2/uL
- KIDNEY_L (9 h): 0.9 g
- KIDNEY_R (9 h): 0.9 g
- KIDNEY_TOTAL (9 h): 1.8 g
- LIVER (9 h): 7.9 g
- A/G (9 h): 0.9
- ALP (9 h): 1449.6 IU/L
- ALT (9 h): 40.4 IU/L
- AST (9 h): 71.8 IU/L
- BUN (9 h): 9.6 mg/dL
- CRE (9 h): 0.2 mg/dL
- Ca (9 h): 10.8 mg/dL
- Cl (9 h): 106.4 meq/L
- DBIL (9 h): 0.004 mg/dL
- GLC (9 h): 136.6 mg/dL
- IP (9 h): 9.9 mg/dL
- K (9 h): 4 meq/L
- LDH (9 h): 62 IU/L
- Na (9 h): 142 meq/L
- PL (9 h): 127.2 mg/dL
- RALB (9 h): 2.6 g/dL
- TBIL (9 h): 0.064 mg/dL
- TC (9 h): 69.4 mg/dL
- TG (9 h): 41.6 mg/dL
- TP (9 h): 5.4 g/dL
- gamma-GTP (9 h): 1 IU/L
- TERMINAL_BW (24 h): 218.5 g
- APTT (24 h): 16.4 s
- Bas (24 h): 0.2%
- Eos (24 h): 1%
- Fbg (24 h): 314.2 mg/dL
- Hb (24 h): 13.3 g/dL
- Ht (24 h): 40.4%
- Lym (24 h): 76.6%
- MCH (24 h): 20.9 pg
- MCHC (24 h): 33%
- MCV (24 h): 63.5 fL
- Mono (24 h): 3.6%
- Neu (24 h): 18%
- PT (24 h): 12.9 s
- Plat (24 h): 125 x10_4/uL
- RBC (24 h): 636.8 x10_4/ul
- Ret (24 h): 8%
- WBC (24 h): 102.5 x10_2/uL
- KIDNEY_L (24 h): 0.9 g
- KIDNEY_R (24 h): 0.9 g
- KIDNEY_TOTAL (24 h): 1.9 g
- LIVER (24 h): 10.3 g
- A/G (24 h): 0.9
- ALP (24 h): 1549.2 IU/L
- ALT (24 h): 45 IU/L
- AST (24 h): 72.2 IU/L
- BUN (24 h): 14.2 mg/dL
- CRE (24 h): 0.2 mg/dL
- Ca (24 h): 11.1 mg/dL
- Cl (24 h): 105 meq/L
- DBIL (24 h): 0.008 mg/dL
- GLC (24 h): 180.2 mg/dL
- IP (24 h): 8.5 mg/dL
- K (24 h): 4 meq/L
- LDH (24 h): 83 IU/L
- Na (24 h): 141.2 meq/L
- PL (24 h): 150.2 mg/dL
- RALB (24 h): 2.5 g/dL
- TBIL (24 h): 0.062 mg/dL
- TC (24 h): 81.8 mg/dL
- TG (24 h): 85 mg/dL
- TP (24 h): 5.4 g/dL
- gamma-GTP (24 h): 1 IU/L
